Reference: patent US9862690B2, “Treatment of pulmonary and other conditions” (University of Pittsburgh—of the Commonwealth System of …, priority 2013, dated 2018)

What was measured:
[1] = tested on: cigarette smoke-induced COPD in mice; experiment: Cigarette smoke-induced COPD model; assay type: in vivo
Experimental: COPD was induced by exposure of mice to whole-body cigarette smoke for 5 days, at the end of which the mice were euthanized and cells and levels of mediators were obtained from the pulmonary airspace by bronchoalveolar lavage. Some mice received PB141 (25 mg/kg) simultaneously with the cigarette smoke (A-I).
Mice were exposed 5 days per week for 4 wk (sub-acute exposure) to the smoke of five cigarettes (Reference Cigarette 2R4F without filter; University of Kentucky) administered four times per day with a 30-min smoke-free interval between exposures. An optimal smoke:air ratio of 1:6 was obtained. In preventive studies, tobacco smoke exposure was paralleled by delivery of a nebulized solution containing PB141 (25 mg/kg) or vehicle (saline) via a micropump nebulizer (Buxco Research Systems, Wilmington, N.C.). At the conclusion of smoke exposure the extent of lung inflammation was assessed by counting polymorphonuclear neutrophils (PMNs) in bronchoalveolar lavage fluid and measuring lung vascular permeability, edema, pulmonary lymphoid aggregation, and generation of inflammatory chemokines and cytokines. Emphysema was assessed by destruction of alveolar walls, quantitated as the destructive index (DI), and by enlargement of alveolar spaces, quantitated by the mean linear intercept (Lm). Airway remodeling was assessed by staining collagen in the airway wall and by measuring the amount of fibronectin. Lung histology sections were assessed for inflammation and injury following hematoxylin and eosin (H&E) staining. Lymphoid aggregates were quantification by morphometric analysis.

[2] = tested on: LPS-induced acute lung injury in mice; experiment: LPS-induced acute lung injury model; assay type: in vivo; conditions: 25 mg/kg nebulized 30 min after LPS
Experimental: Induction of ALI by intratracheal injection of LPS (50 μg) was followed 30 min later by nebulization of PB141 (25 mg/kg) or vehicle (saline) and delivery to cage air via a micropump nebulizer. After a further 5.5 h, BAL fluid, plasma, and lung samples were obtained. (A) Total cell and (B) neutrophil number in BAL fluid; myeloperoxidase activity in (C) lung tissue and (D) BAL fluid; (E) microscopic examination following staining of BAL fluid; (F) H2O2 production; (G) nitrate concentration, and (H) malonyldialdehyde/protein ratio in lung. Plasma levels of (I) MIP-2, (J) IL-6, (K) TNF-α, and (L) KC. Data are representative of one of two independent experiments with n=5-8 mice per group; *** p<0.001.
Induction of ALI by intratracheal injection of LPS (50 μg) was followed 30 min later by nebulization of PB141 (25 mg/kg) or vehicle (saline) and delivery to cage air via a micropump nebulizer. After a further 5.5 h, BAL fluid and lung samples were obtained. (A) Protein concentration in BAL fluid. (B) Ratio of lung wet:dry weight. (C) Histological examination of the lung following H&E staining. Data are representative of one of two independent experiments with n=5-8 mice per group; *** p<0.001.
Induction of ALI by intratracheal injection of LPS (50 μg) was followed 30 min later by nebulization of PB141 (25 mg/kg) or vehicle (saline) and delivery to cage air via a micropump nebulizer. After another 5.5 h lungs were excised and DNA-binding activity of the transcription factor Nrf2 was determined. Data is representative of one of two independent experiments with n=4-6 mice per group; *** p<0.001.
Acute lung injury was induced by intratracheal injection of endotoxin (lipopolysaccharide; LPS) prepared from Escherichia coli 0111:B6 (Sigma-Aldrich; St. Louis, Mo.) into anesthetized mice. In other experiments, systemic sepsis was induced by intraperitoneal injection of endotoxin. Thirty minutes later PB141 (25 mg/kg) or vehicle (saline) was delivered to mice for 30 minutes via a micropump nebulizer (Buxco Research Systems, Wilmington, N.C.) fitted at the chamber inlet. Extent of lung injury after 5.5 h and systemic sepsis after 12 h were assessed by measuring lung tissue myeloperoxidase activity, polymorphonuclear neutrophil (PMN) count in bronchoalveolar lavage fluid, lung vascular permeability, pulmonary edema, and cytokine generation. Lung histology sections were assessed microscopically for evidence of inflammation and injury following hematoxylin and eosin (H&E) staining.

[3] = 25 mg/kg nebulized in parallel with smoke exposure

Question: With `CC(=O)N[C@@H](CSC(CC(=O)CC(SC[C@H](NC(C)=O)C(=O)O)c1cnccn1)c1cnccn1)C(=O)O` (stereo partly drawn) [PB141] as the compound, how does the Airway wall remodeling [1, 3] read?
Answer: The Airway wall remodeling was “significantly decreased”.

Question: What about the “Cigarette smoke-induced increase of inflammatory cells in the lungs” value [1, 3] of the same compound?
Answer: The value was “significantly decreased”.

Question: And the “Development of pulmonary hypertension” value [1, 3]?
Answer: Its value is “significantly decreased”.

Question: And the Emphysema [1, 3]?
Answer: Its Emphysema is “significantly decreased”.

Question: What about the “Generation of inflammatory chemokines and cytokines” value [1, 3] of the same compound?
Answer: The value was “significantly decreased”.

Question: And the Pulmonary lymphoid aggregates [1, 3]?
Answer: Its Pulmonary lymphoid aggregates is “significantly decreased”.

Question: And the “Phagocytic ability of alveolar macrophages” value ([1]; administration by nebulization)?
Answer: Its value is “improved”.

Question: And the “Cytokine generation (plasma MIP-2, IL-6, TNF-α, KC)” value ([2]; 5.5 h)?
Answer: The value was “reduced”.

Question: And the “Edema (lung wet:dry weight)” value ([2]; 5.5 h)?
Answer: Its value is “reduced”.

Question: What about the “Lung Nrf2 DNA-binding activity after LPS” value ([2]; 5.5 h) of the same compound?
Answer: Its value is “reverses the LPS-induced decrease”.

Question: What about the Lung myeloperoxidase activity ([2]; 5.5 h) of the same compound?
Answer: The Lung myeloperoxidase activity was “decreased”.

Question: What about the “Oxidant stress (H2O2, nitrate, malonyldialdehyde)” value ([2]; 5.5 h) of the same compound?
Answer: The value was “reduced”.

Question: What about the “PMN count in BAL fluid” value ([2]; 5.5 h) of the same compound?
Answer: The value was “decreased”.

Question: And the “PMN infiltration into the alveolar space” value ([2]; 5.5 h)?
Answer: The value was “effectively prevented”.

Question: And the “Lung injury seen histologically” value ([2]; H&E)?
Answer: Its value is “Decreased lung injury”.
